Legend:
[1] = β-carotene-linoleic acid assay (inhibition of lipid peroxidation); conditions: for β-Carotene-linoleic acid assay Inhibition (%): at 200 µg/mL
Method: (§1) Antioxidant activities of all extracts were assessed by using different methods including β-carotene-linoleic acid assay, DPPH assay, ABTS assay, CUPRAC assay and Metal chelating assay. […] The DPPH assay was performed by using a spectrophotometer according to typical methods documented previously[23]. The ABTS^+assay was carried out as described previously by Re et al., (1999)[24]. The cupric reducing antioxidant capacity (CUPRAC) was evaluated by following the method published Apak et al., (2004)[25]. α-tocopherol and butylated hydroxy anisole (BHA) were used as antioxidant standards to compare the β-carotene-linoleic acid, DPPH, ABTS and CUPRAC assays. The metal chelating assay of extracts for Fe^+2 was performed by using a spectrophotometer as the method reported by Tel et al., (2012)[26]. Ethylenediaminetetraacetic acid (EDTA) was used as a standard.
(§2) IC50 values were calculated using a graph plotted between concentration (µg/mL) and percentage inhibition (%). A graph that plotted absorbance against concentration (µg/mL) was used to determine A0.50 values.

[2] = DPPH free radical scavenging assay; conditions: for DPPH assay Inhibition (%): at 200 µg/mL
Method: as §1, §2

[3] = ABTS cation radical scavenging assay; conditions: for ABTS assay Inhibition (%): at 200 µg/mL
Method: as §1, §2

[4] = CUPRAC (cupric reducing antioxidant capacity) assay; conditions: for CUPRAC assay Absorbance: at 200 µg/mL; for CUPRAC assay A0.50: concentration giving absorbance of 0.50
Method: as §1, §2

BChE = molecular target: T1, BChE (Equus caballus, UniProt P81908); assay: Butyrylcholinesterase inhibition (DTNB spectrophotometric); assay type: biochemical, horse
T1 construct: host or cells: equine serum
T1 sequence (P81908 whole entry): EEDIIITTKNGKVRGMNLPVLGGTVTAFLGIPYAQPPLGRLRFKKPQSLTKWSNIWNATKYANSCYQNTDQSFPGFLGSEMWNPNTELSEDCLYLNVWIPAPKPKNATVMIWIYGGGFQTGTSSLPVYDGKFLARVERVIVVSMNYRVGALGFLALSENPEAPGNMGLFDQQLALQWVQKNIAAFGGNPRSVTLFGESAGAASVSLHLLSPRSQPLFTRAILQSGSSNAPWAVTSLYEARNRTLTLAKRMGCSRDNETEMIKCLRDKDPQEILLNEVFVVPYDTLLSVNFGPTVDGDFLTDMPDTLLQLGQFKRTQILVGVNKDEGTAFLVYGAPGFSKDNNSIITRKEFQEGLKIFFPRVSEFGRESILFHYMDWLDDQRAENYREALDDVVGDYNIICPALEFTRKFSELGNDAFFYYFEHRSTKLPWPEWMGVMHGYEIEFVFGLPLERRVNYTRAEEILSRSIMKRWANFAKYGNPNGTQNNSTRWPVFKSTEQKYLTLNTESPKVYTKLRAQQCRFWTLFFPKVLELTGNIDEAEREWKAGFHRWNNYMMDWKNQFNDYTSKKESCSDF
Method: The inhibitory activities of acetylcholinesterase and butyrylcholinesterase enzymes of the extracts were determined using spectrophotometer following the protocol described by Deveci et al., (2019) with slight modifications[27]. Acetylthiocholine iodide and butyrylthiocholine chloride were utilized as reaction substrates, while AChE from electric eels and BChE from horse serum were applied. Employing DTNB (5,5′-Dithio-bis(2-nitrobenzoic) acid), the cholinesterase activity was measured. In a nutshell, 130 µL of 100 mM sodium phosphate buffer (pH 8.0), 10 µL of sample solution at different concentrations, and 20 µL of enzyme (AChE or BChE) solution in buffer were mixed and incubated for 15 min at 25 °C, and 20 µL of 0.5 mM DTNB was added. Following that, 0.71 mM, 20 µL of acetylthiocholine iodide or 0.2 mM, 20 µL of butyrylthiocholine chloride were added to initiate the reaction. Utilizing a 96-well microplate reader, the hydrolysis of these substrates was observed spectrophotometrically by the formation of a yellow 5-thio-2-nitrobenzoate anion at a wavelength of 412 nm.
as §2

urease = urease (Canavalia ensiformis, UniProt P07374); assay type: biochemical, jack bean
Chain of urease (P07374 whole entry, looked up): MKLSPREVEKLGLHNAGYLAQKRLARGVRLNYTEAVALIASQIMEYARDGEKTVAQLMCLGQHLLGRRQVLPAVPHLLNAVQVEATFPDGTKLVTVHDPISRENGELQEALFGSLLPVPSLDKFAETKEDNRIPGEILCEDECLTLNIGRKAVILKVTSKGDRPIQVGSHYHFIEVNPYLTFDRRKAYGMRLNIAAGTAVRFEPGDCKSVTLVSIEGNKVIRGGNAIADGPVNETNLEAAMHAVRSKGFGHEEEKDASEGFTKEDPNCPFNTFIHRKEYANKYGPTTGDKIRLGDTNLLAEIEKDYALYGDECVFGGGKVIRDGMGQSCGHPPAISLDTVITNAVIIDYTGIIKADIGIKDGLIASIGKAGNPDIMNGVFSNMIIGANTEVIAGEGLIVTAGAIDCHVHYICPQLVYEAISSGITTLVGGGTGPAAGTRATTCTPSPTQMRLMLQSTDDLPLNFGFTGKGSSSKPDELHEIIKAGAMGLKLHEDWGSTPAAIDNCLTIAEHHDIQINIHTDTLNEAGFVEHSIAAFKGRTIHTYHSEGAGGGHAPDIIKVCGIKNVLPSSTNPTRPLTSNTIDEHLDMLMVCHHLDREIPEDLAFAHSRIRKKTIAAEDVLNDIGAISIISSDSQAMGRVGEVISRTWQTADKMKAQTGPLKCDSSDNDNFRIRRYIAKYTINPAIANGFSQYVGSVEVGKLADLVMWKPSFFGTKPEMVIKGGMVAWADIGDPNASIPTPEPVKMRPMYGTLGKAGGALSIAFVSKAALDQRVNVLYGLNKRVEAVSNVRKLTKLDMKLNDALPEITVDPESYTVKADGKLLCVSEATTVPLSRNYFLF

α-glucosidase = α-glucosidase inhibition (PNPG); assay type: biochemical, Saccharomyces cerevisiae; conditions: at 200 µg/mL
Method: 50 µL of phosphate buffer (0.01 M pH 6.9), 10 µL of sample solution, 50 µL of α-glucosidase from Saccharomyces cerevisiae in phosphate buffer (0.01 M pH 6.0) and 25 µL of PNPG (4-N-nitrophenyl-α-d-glucopyranoside) in phosphate buffer (0.01 M pH 6.9) were mixed in a 96-well microplate. Then the solution was incubated for 20 min at 37 °C.

α-amylase = molecular target: T2, α-amylase (Sus scrofa, UniProt P00690); assay: α-amylase inhibition (starch-iodine method); assay type: biochemical, porcine
T2 construct: host or cells: porcine pancreas
T2 sequence (P00690 16-511): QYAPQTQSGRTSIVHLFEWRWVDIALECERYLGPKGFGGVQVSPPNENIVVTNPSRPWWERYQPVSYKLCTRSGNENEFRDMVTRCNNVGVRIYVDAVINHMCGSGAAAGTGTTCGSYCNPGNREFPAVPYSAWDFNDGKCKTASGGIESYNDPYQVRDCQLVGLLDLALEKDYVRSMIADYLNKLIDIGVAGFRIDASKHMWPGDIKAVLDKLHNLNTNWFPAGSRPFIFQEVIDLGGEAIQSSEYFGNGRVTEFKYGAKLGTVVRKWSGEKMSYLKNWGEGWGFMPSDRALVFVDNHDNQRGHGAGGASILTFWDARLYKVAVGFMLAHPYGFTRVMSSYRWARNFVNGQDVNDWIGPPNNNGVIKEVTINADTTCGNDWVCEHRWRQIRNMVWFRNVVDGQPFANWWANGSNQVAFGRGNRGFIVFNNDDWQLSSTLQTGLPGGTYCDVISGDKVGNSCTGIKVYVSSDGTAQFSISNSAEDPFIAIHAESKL
Method: The α-amylase inhibitory activity was evaluated by using starch-iodine method[30]. The enzyme α-amylase from porcine pancreas was used and enzyme solution was prepared with phosphate buffer (20 mM pH = 6.9 phosphate buffer prepared with 6 mM NaCl). Then, 50 µL of α-amylase and 25 µL of sample solutions were mixed in a 96-well microplate. The mixture was pre-incubated for 10 min at 37 °C. Then, 50 µL of starch solution (0.05%) was added and incubated for 10 min at 37 °C. Following incubation, the reaction was completed by adding HCl (0.1 M, 25 µL) and Lugol (100 µL) solutions, and the absorbance was recorded at 565 nm.
(§3) IC50 values were calculated using a graph plotted between concentration (µg/mL) and percentage inhibition (%).

tyrosinase = assay: Tyrosinase inhibition (L-DOPA substrate); assay type: biochemical; conditions: at 200 µg/mL
Method: Tyrosinase enzyme inhibitory activity was measured by the spectrophotometric method as described by Masuda et al., (2005)[29]. L-DOPA was utilized as substrate of the reaction. 150 µL of sodium phosphate buffer (pH 6.8, 100 mM), 10 µL of sample and 20 µL of tyrosinase enzyme solution in buffer were mixed and incubated for 10 min at 37 °C. Following incubation, 20 µL of L-DOPA was added. The absorbances in a 96-well microplate were monitored at 475 nm after 10 min of incubation at 37 °C.
as §3

Method for Metal chelating assay: as §1, §2

Cc1c(C)c2c(c(C)c1O)CC[C@@](C)(CCC[C@H](C)CCC[C@H](C)CCCC(C)C)O2 [α-Tocopherol, α-tocopherol]
β-Carotene-linoleic acid assay IC50 [1]: 2.10 ± 0.05 µg/mL
β-Carotene-linoleic acid assay Inhibition (%) [1]: 95.73 ± 0.44%
DPPH assay IC50 [2]: 38.20 ± 0.50 µg/mL
DPPH assay Inhibition (%) [2]: 84.25 ± 0.36%
ABTS assay IC50 [3]: 34.75 ± 0.55 µg/mL
ABTS assay Inhibition (%) [3]: 83.63 ± 0.34%
CUPRAC assay Absorbance [4]: 0.88 ± 0.03
CUPRAC assay A0.50 [4]: 60.45 ± 0.30 µg/mL

COc1ccc2c3c1O[C@H]1C[C@@H](O)C=C[C@@]31CCN(C)C2 [Galantamine, galantamine]
inhibition at 200 µg/mL (BChE): 79.43 ± 0.6%

NC(N)=S [Thiourea, thiourea]
Urease inhibitory IC50 (urease): 8.20 ± 0.36 µg/mL
Urease inhibitory Inhibition (%) (urease; at 200 µg/mL): 87.37 ± 0.52%

C[C@H]1O[C@H](O[C@H]2[C@H](O)[C@@H](O)[C@@H](O[C@H]3[C@H](O)[C@@H](O)C(O)O[C@@H]3CO)O[C@@H]2CO)[C@H](O)[C@@H](O)[C@@H]1N[C@H]1C=C(CO)[C@@H](O)[C@H](O)[C@H]1O (stereo partly drawn) [Acarbose]
α-glucosidase Inhibition (%) (α-glucosidase): 56.70 ± 0.75%
inhibition at 200 µg/mL (α-amylase): 82.1 ± 0.27%

O=C(O)CN(CCN(CC(=O)O)CC(=O)O)CC(=O)O [EDTA, ethylenediaminetetraacetic acid]
Metal chelating assay IC50 (Metal chelating assay): 5.50 ± 0.25 µg/mL
Metal chelating assay Inhibition (%) (Metal chelating assay; at 200 µg/mL): 94.40 ± 0.35%

COc1ccc(O)c(C(C)(C)C)c1 [BHA, butylated hydroxyanisole]
β-Carotene-linoleic acid assay IC50 [1]: 1.50 ± 0.03 µg/mL
β-Carotene-linoleic acid assay Inhibition (%) [1]: 96.20 ± 0.28%
DPPH assay IC50 [2]: 19.50 ± 0.30 µg/mL
DPPH assay Inhibition (%) [2]: 87.90 ± 0.44%
ABTS assay IC50 [3]: 12.70 ± 0.10 µg/mL
ABTS assay Inhibition (%) [3]: 88.93 ± 0.21%
CUPRAC assay Absorbance [4]: 2.45 ± 0.07
CUPRAC assay A0.50 [4]: 25.40 ± 0.42 µg/mL

O=c1cc(CO)occ1O [Kojic acid]
Tyrosinase inhibitory Inhibition (%) (tyrosinase): 83.54 ± 0.56%

From PMC11873045, “Phytochemical profiling and various biological activities of Phlomis tuberosa L” (Scientific Reports, 2025)
